Test results taken from US9913843B2, “Protein kinase C inhibitors and uses thereof” (Rigel Pharmaceuticals, Inc., priority 2012, dated 2018).
Read-outs that look alike come from different tables or passages of the source.

Test system: PKC mediated IL-2 production in human primary T cells
Assay: IL-2 ELISA, human primary T cell, anti CD3+CD28+ (whole cell functional assay for PKC mediated IL-2 production)
Type: cell-based
Experimental: Human primary T cells were prepared as follows. Fresh PBMC's from All Cells (Cat # PB002) were re-suspended in RPMI (RPMI-1640 with L-Glutamine; Mediatech, Inc., Herndon Va., cat. #10-040-CM) with 10% FBS and seeded into flasks and incubated at 37° C. for 2 hours to allow the monocytes to adhere. The non-adherent cells were then centrifuged and re-suspended in RPMI medium containing 40 U/ml IL2 and seeded into a flask pre-coated with 1 μg/ml aCD3 and 5 ug/ml aCD28 (Anti-Human CD3, BD Pharmingen Catalog #555336, Anti-Human CD28, Beckman Coulter Catalog #IM1376). The cells were stimulated for 3-4 days, then transferred to a fresh flask and maintained in RPMI (RPMI-1640 with L-Glutamine; Mediatech, Inc., Herndon Va., cat. #10-040-CM) with 10% FBS and 40 U/ml IL-2.
Human primary T cells (100,000 cells per well) were pre-incubated with or without test compound in RPMI-1640 with L-Glutamine and 10% FBS for 1 hour at 37° C. Cells were then stimulated by transferring them to round-bottom 96-well plates pre-coated with 1 μg/ml aCD3 and 5 μg/ml aCD28. For counter assay, cells were instead stimulated by adding 8× stock solutions of PMA and ionomycin in RPMI-1640 with L-Glutamine and 10% FBS (for final concentrations of 0.5 ng/ml PMA and 0.1 μM ionomycin, both from Calbiochem). Cells were incubated at 37° C. for 24 hours before 100 μL supernatants were harvested for quantification of IL-2 by ELISA using Human IL-2 Duoset ELISA Kit from R and D Systems, Cat. # DY202E.
Compounds 1-156 were tested in a whole cell functional assay for PKC mediated IL-2 production as follows. Human primary T cell isolation and culture: Human primary T cells were prepared as follows. Whole blood was obtained from a healthy volunteer, mixed 1:1 with PBS, layered on to Ficoll Hypaque (Amersham Pharmacia Biotech, Piscataway, N.J., Catalog #17-1440-03) in 2:1 blood/PBS:ficoll ratio and centrifuged for 30 minutes at 4° C. at 1750 rpm. The cells at the serum: ficoll interface were recovered and washed twice with 5 volumes of PBS. These freshly isolated human peripheral blood mononuclear cells were cultured in Yssel's medium containing 40 U/ml IL2 in a flask pre-coated with 1 μg/ml aCD3 and 5 μg/ml aCD28 (Anti-Human CD3, BD Pharmingen Catalog #555336, Anti-Human CD28, Beckman Coulter Catalog #IM1376). The cells were stimulated for 3-4 days, then transferred to a fresh flask and maintained in RPMI (RPMI-1640 with L-Glutamine; Mediatech, Inc., Herndon Va., cat. #10-040-CM) with 10% FBS and 40 U/ml IL-2. The primary T-cells were then washed twice with PBS to remove the IL-2.
Primary T cell stimulation and IL2 ELISA: Human primary T cells (100,000 cells per well) were pre-incubated with or without test compound in Yssel's medium for 1 hour at 37° C. Cells were then stimulated by transferring them to round-bottom 96-well plates pre-coated with 1 μg/ml aCD3 and 5 μg/ml αCD28. For counter assay, cells were instead stimulated by adding 8× stock solutions of PMA and ionomycin in Yssels (for final concentrations of 0.5 ng/ml PMA and 0.1 uM ionomycin, both from Calbiochem). Cells were incubated at 37° C. for 24 hours before 100 μL supernatants were harvested for quantification of IL-2 by ELISA using Human IL-2 Duoset ELISA Kit from R and D Systems, Cat. # DY202E.

[1] = 24 h, human primary T cells stimulated with anti-CD3 + anti-CD28, IL-2 by ELISA, read-out: IC50 for blocking IL-2 production
[2] = human primary T cells stimulated with anti-CD3 + anti-CD28, 24 h, IL-2 by ELISA, 8 pt, read-out: IL2 ELISA, Human primary T cell, anti-CD3 + CD28, 8 pt (IC50)

Compound	IC50 [1]	IC50 [2]
Cc1ccc(Nc2ncc(C(F)(F)F)c(NC[C@@H]3CCCN4CCCC[C@H]34)n2)cc1-n1cnnn1 [Compound 101, 5-(trifluoromethyl)-N4-(((1S,9aR)-octahydro-1H-quinolizin-1-yl)methyl)-N2-(4-methyl-3-(1H-tetrazol-1-yl)phenyl)pyrimidine-2,4-diamine]	< 30000 nM	10700 nM
Cc1cnc(Nc2cccc(C#N)c2)nc1NC[C@@H]1CCCN2CCCC[C@H]12 [Compound 66, 3-(4-(((1S,9aR)-octahydro-1H-quinolizin-1-yl)methylamino)-5-methylpyrimidin-2-ylamino)benzonitrile]	< 30000 nM	1480 nM
Cc1cnc(Nc2ccc(C3CC3)c(C#N)c2)nc1NC[C@@H]1CCCN2CCCC[C@H]12 [Compound 68, 5-(4-(((1S,9aR)-octahydro-1H-quinolizin-1-yl)methylamino)-5-methylpyrimidin-2-ylamino)-2-cyclopropylbenzonitrile]	< 30000 nM	950 nM
COc1cnc(Nc2cccc(C#N)c2)nc1NC[C@@H]1CCCN2CCCC[C@H]12 [Compound 79, 3-(4-(((1S,9aR)-octahydro-1H-quinolizin-1-yl)methylamino)-5-methoxypyrimidin-2-ylamino)benzonitrile]	< 30000 nM	5350 nM
COCCOc1cc(F)c(Nc2ncc(C#N)c(NC[C@@H]3CCCN4CCCC[C@H]34)n2)cc1-n1nnn(C)c1=O [Compound 129, 2-((2-fluoro-4-(2-methoxyethoxy)-5-(4-methyl-5-oxo-4,5-dihydro-1H-tetrazol-1-yl)phenyl)amino)-4-((((1S,9aR)-octahydro-2H-quinolizin-1-yl)methyl)amino)pyrimidine-5-carbonitrile]	< 30000 nM	1340 nM
COc1cc(Nc2ncc(N(C)C)c(NC[C@@H]3CCCN4CCCC[C@H]34)n2)cc(OC)c1 [Compound 96, N4-(((1S,9aR)-octahydro-1H-quinolizin-1-yl)methyl)-N2-(3,5-dimethoxyphenyl)-N5,N5-dimethylpyrimidine-2,4,5-triamine]	< 30000 nM	4980 nM
COc1cnc(Nc2ccc3oc(=O)[nH]c3c2)nc1NC[C@@H]1CCCN2CCCC[C@H]12 [Compound 84, 5-(4-(((1S,9aR)-octahydro-1H-quinolizin-1-yl)methylamino)-5-methoxypyrimidin-2-ylamino)benzo[d]oxazol-2(3H)-one]	< 30000 nM	15400 nM
O=c1[nH]c2cc(Nc3ncc(Cl)c(NC[C@@H]4CCCN5CCCC[C@H]45)n3)ccc2o1 [Compound 44, 5-(4-(((1S,9aR)-octahydro-1H-quinolizin-1-yl)methylamino)-5-chloropyrimidin-2-ylamino)benzo[d]oxazol-2(3H)-one]	< 30000 nM	1180 nM
COc1cc(Nc2ncc(C#N)c(NC[C@@H]3CCCN4CCCC[C@H]34)n2)cc(OC)c1 [Compound 121, 4-(((1S,9aR)-octahydro-1H-quinolizin-1-yl)methylamino)-2-(3,5-dimethoxyphenylamino)pyrimidine-5-carbonitrile]	< 30000 nM	141 nM
COc1ccc(Nc2ncc(C)c(NC[C@@H]3CCCN4CCCC[C@H]34)n2)cc1-n1nnnc1C [Compound 64, N4-(((1S,9aR)-octahydro-1H-quinolizin-1-yl)methyl)-N2-(4-methoxy-3-(5-methyl-1H-tetrazol-1-yl)phenyl)-5-methylpyrimidine-2,4-diamine]	< 30000 nM	459 nM
Fc1cnc(Nc2ccc3c(c2)OC(F)(F)C(F)(F)O3)nc1NC[C@@H]1CCCN2CCCC[C@H]12 [Compound 20, 5-fluoro-N2-(2,2,3,3-tetrafluoro-2,3-dihydrobenzo[b][1,4]dioxin-7-yl)-N4-(((1S,9aR)-octahydro-1H-quinolizin-1-yl)methyl)pyrimidine-2,4-diamine]	< 30000 nM	1080 nM
COc1ccc(Nc2ncc(C#N)c(NC[C@@H]3CCCN4CCCC[C@H]34)n2)cc1-n1nnnc1C [Compound 113, 4-(((1S,9aR)-octahydro-1H-quinolizin-1-yl)methylamino)-2-(4-methoxy-3-(5-methyl-1H-tetrazol-1-yl)phenylamino)pyrimidine-5-carbonitrile]	< 30000 nM	18 nM
Cc1ccc(Nc2ncc(Cl)c(NC[C@@H]3CCCN4CCCC[C@H]34)n2)cc1C#N [Compound 40, 5-(4-(((1S,9aR)-octahydro-1H-quinolizin-1-yl)methylamino)-5-chloropyrimidin-2-ylamino)-2-methylbenzonitrile]	< 30000 nM	267 nM
Cc1nnnn1-c1ccc(F)c(Nc2ncc(C#N)c(NC[C@@H]3CCCN4CCCC[C@H]34)n2)c1 [Compound 118, 4-(((1S,9aR)-octahydro-1H-quinolizin-1-yl)methylamino)-2-(2-fluoro-5-(5-methyl-1H-tetrazol-1-yl)phenylamino)pyrimidine-5-carbonitrile]	< 30000 nM	76 nM

Results, then the molecule that gave them:

IC50 [1]	IC50 [2]	Compound
< 30000 nM	27.6 nM	N#Cc1cnc(Nc2ccc(OCCO)c(-n3cnnn3)c2)nc1NC[C@@H]1CCCN2CCCC[C@H]12 [Compound 140, 2-((4-(2-hydroxyethoxy)-3-(1H-tetrazol-1-yl)phenyl)amino)-4-((((1S,9aR)-octahydro-2H-quinolizin-1-yl)methyl)amino)pyrimidine-5-carbonitrile]
< 30000 nM	36.5 nM	Cc1nnnn1-c1cc(Nc2ncc(C#N)c(NC[C@@H]3CCCN4CCCC[C@H]34)n2)ccc1F [Compound 114, 4-(((1S,9aR)-octahydro-1H-quinolizin-1-yl)methylamino)-2-(4-fluoro-3-(5-methyl-1H-tetrazol-1-yl)phenylamino)pyrimidine-5-carbonitrile]
< 30000 nM	412 nM	COc1cc(Nc2ncc(Cl)c(NC[C@@H]3CCCN4CCCC[C@H]34)n2)cc(OC)c1 [Compound 43, 5-chloro-N4-(((1S,9aR)-octahydro-1H-quinolizin-1-yl)methyl)-N2-(3,5-dimethoxyphenyl)pyrimidine-2,4-diamine]
< 30000 nM	66.3 nM	Cc1nnnn1-c1cc(Nc2ncc(F)c(NC[C@@H]3CCCN4CCCC[C@H]34)n2)c(F)cc1C1CC1 [Compound 23, N2-(4-cyclopropyl-2-fluoro-5-(5-methyl-1H-tetrazol-1-yl)phenyl)-5-fluoro-N4-(((1S,9aR)-octahydro-1H-quinolizin-1-yl)methyl)pyrimidine-2,4-diamine]
< 30000 nM	176 nM	CC(O)COc1cc(F)c(Nc2ncc(C#N)c(NC[C@@H]3CCCN4CCCC[C@H]34)n2)cc1-n1nnn(C)c1=O (stereo partly drawn) [Compound 136, 2-((2-fluoro-4-(2-hydroxypropoxy)-5-(4-methyl-5-oxo-4,5-dihydro-1H-tetrazol-1-yl)phenyl)amino)-4-((((1S,9aR)-octahydro-2H-quinolizin-1-yl)methyl)amino)pyrimidine-5-carbonitrile]
< 30000 nM	908 nM	Cn1nnn(-c2cc(Nc3ncc(C#N)c(NC[C@@H]4CCCN5CCCC[C@H]45)n3)c(F)cc2OCC(O)(C(F)(F)F)C(F)(F)F)c1=O [Compound 134, 2-((2-fluoro-5-(4-methyl-5-oxo-4,5-dihydro-1H-tetrazol-1-yl)-4-(3,3,3-trifluoro-2-hydroxy-2-(trifluoromethyl)propoxy)phenyl)amino)-4-((((1S,9aR)-octahydro-2H-quinolizin-1-yl)methyl)amino)pyrimidine-5-carbonitrile]
< 30000 nM	3590 nM	COc1cc(Nc2nccc(NC[C@@H]3CCCN4CCCC[C@H]34)n2)cc(OC)c1 [Compound 57, N4-(((1S,9aR)-octahydro-1H-quinolizin-1-yl)methyl)-N2-(3,5-dimethoxyphenyl)pyrimidine-2,4-diamine]
